Data as given in the supplement of paper PMC10627819.
Values after ≈ are worked out from the molar mass of the structure shown.

How the values were obtained:
[1] = tested on: B. subtilis 168; assay: fitness (endpoint OD595 vs no drug) (fraction); higher = more growth
Summary of the method: (§1)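 In 384-well plates at 37 °C, cultures began at OD595 0.01 in 30 µl, with 55 µl used for S. pneumoniae. OD595 readings every 30 min for 14 h were corrected by the first reading. Fitness divides the stationary-phase transition optical density by the robust mean of no-drug control wells. The result is capped at 1.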

[2] = tested on: S. aureus Newman; assay: as above
Summary of the method: as §1

[3] = tested on: S. aureus DSM 20231; assay: as above
Summary of the method: as §1

[4] = tested on: S. pneumoniae D39V; assay: as above
Summary of the method: as §1

[5] = tested on: B. subtilis 168
[6] = tested on: S. aureus Newman
[7] = tested on: S. aureus DSM 20231
[8] = tested on: S. pneumoniae D39V
[9] = tested on: B. subtilis 168; assay: Bliss interaction score (quartile over a dose matrix) (fitness difference); higher = more antagonism (negative = synergy)
Summary of the method: (§2)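 The Bliss score takes observed fitness and subtracts the expected fitness, calculated as a product of single-drug fitness values. Those single-drug values were inferred from the combination data. Fitness is OD595 at entry into stationary phase divided by the plate's robust no-drug mean, capped at 1, and the score is summarised by quartiles across technical, biological and donor/recipient replicates.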

[10] = tested on: S. aureus Newman; assay: as above
Summary of the method: as §2

[11] = tested on: S. aureus DSM 20231; assay: as above
Summary of the method: as §2

[12] = tested on: S. pneumoniae D39V; assay: as above
Summary of the method: as §2
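For Bliss interaction score (quartile over a dose matrix) in this document: first quartile when negative (synergy) and third quartile when positive (antagonism).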

COc1ccc(C[C@H](N)C(=O)N[C@H]2[C@@H](O)[C@H](n3cnc4c(N(C)C)ncnc43)O[C@@H]2CO)cc1 [Puromycin]
fitness
Conditions | 0.39 µg/mL | 0.78 µg/mL | 1 µg/mL | 1.56 µg/mL | 2 µg/mL | 4 µg/mL
[1] | 0.931 | 0.929 | – | 0.94 | – | –
[2] | 0.985 | 0.993 | – | ≥ 1 | – | –
[3] | ≥ 1 | ≥ 1 | – | ≥ 1 | – | –
[4] | – | – | ≥ 1 | – | 0.977 | 0.76

Conditions | MIC [mg/L]
[5] | 1.56 (≈ 3.31 µM)
[6] | 1.8 (≈ 3.82 µM)
[7] | 1.8 (≈ 3.82 µM)
[8] | 12.5 (≈ 26.5 µM)

COc1ccc(C[C@H](N)C(=O)N[C@H]2[C@@H](O)[C@H](n3cnc4c(N(C)C)ncnc43)O[C@@H]2CO)cc1 [Puromycin] + CC1=C\[C@@H](O)CC(=O)Cc2nc(co2)C(=O)N2CCC=C2C(=O)O[C@H](C(C)C)[C@H](C)/C=C/C(=O)NC\C=C\1 [Virginiamycin M1]
Conditions | fitness
[1], first compound 0.39 µg/mL, partner 0.0625 µg/mL | 0.975
[1], first compound 0.39 µg/mL, partner 0.125 µg/mL | 0.947
[1], first compound 0.39 µg/mL, partner 0.25 µg/mL | ≥ 1
[1], first compound 0.78 µg/mL, partner 0.0625 µg/mL | 0.94
[1], first compound 0.78 µg/mL, partner 0.125 µg/mL | 0.908
[1], first compound 0.78 µg/mL, partner 0.25 µg/mL | 0.963
[1], first compound 1.56 µg/mL, partner 0.0625 µg/mL | 0.948
[1], first compound 1.56 µg/mL, partner 0.125 µg/mL | 0.884
[1], first compound 1.56 µg/mL, partner 0.25 µg/mL | 0.87
[2], first compound 0.39 µg/mL, partner 0.0625 µg/mL | 0.988
[2], first compound 0.39 µg/mL, partner 0.125 µg/mL | ≥ 1
[2], first compound 0.39 µg/mL, partner 0.25 µg/mL | 0.999
[2], first compound 0.78 µg/mL, partner 0.0625 µg/mL | 0.986
[2], first compound 0.78 µg/mL, partner 0.125 µg/mL | ≥ 1
[2], first compound 0.78 µg/mL, partner 0.25 µg/mL | 0.984
[2], first compound 1.56 µg/mL, partner 0.0625 µg/mL | 0.998
[2], first compound 1.56 µg/mL, partner 0.125 µg/mL | 0.977
[2], first compound 1.56 µg/mL, partner 0.25 µg/mL | 0.986
[3], first compound 0.39 µg/mL, partner 0.0625 µg/mL | 0.981
[3], first compound 0.39 µg/mL, partner 0.125 µg/mL | ≥ 1
[3], first compound 0.39 µg/mL, partner 0.25 µg/mL | 0.926
[3], first compound 0.78 µg/mL, partner 0.125 µg/mL | 0.807
[3], first compound 0.78 µg/mL, partner 0.25 µg/mL | 0.978
[3], first compound 1.56 µg/mL, partner 0.0625 µg/mL | 0.998
[3], first compound 1.56 µg/mL, partner 0.125 µg/mL | ≥ 1
[3], first compound 1.56 µg/mL, partner 0.25 µg/mL | 0.98
[4], first compound 1 µg/mL, partner 0.5 µg/mL | 0.976
[4], first compound 1 µg/mL, partner 1 µg/mL | 0.952
[4], first compound 1 µg/mL, partner 2 µg/mL | 0.908
[4], first compound 2 µg/mL, partner 0.5 µg/mL | 0.986
[4], first compound 2 µg/mL, partner 1 µg/mL | 0.969
[4], first compound 2 µg/mL, partner 2 µg/mL | 0.886
[4], first compound 4 µg/mL, partner 0.5 µg/mL | 0.847
[4], first compound 4 µg/mL, partner 1 µg/mL | 0.783
[4], first compound 4 µg/mL, partner 2 µg/mL | 0.804

one replicate
Conditions | fitness
[2], first compound 0.39 µg/mL, partner 0.5 µg/mL | 0.877
[2], first compound 0.39 µg/mL, partner 1 µg/mL | ≥ 1
[2], first compound 0.39 µg/mL, partner 2 µg/mL | 0.907
[2], first compound 0.78 µg/mL, partner 0.5 µg/mL | 0.948
[2], first compound 0.78 µg/mL, partner 1 µg/mL | 0.988
[2], first compound 0.78 µg/mL, partner 2 µg/mL | 0.87
[2], first compound 1.56 µg/mL, partner 0.5 µg/mL | 0.942
[2], first compound 1.56 µg/mL, partner 1 µg/mL | ≥ 1
[2], first compound 1.56 µg/mL, partner 2 µg/mL | 0.919
[3], first compound 0.39 µg/mL, partner 0.5 µg/mL | 0.858
[3], first compound 0.39 µg/mL, partner 1 µg/mL | 0.798
[3], first compound 0.78 µg/mL, partner 0.5 µg/mL | 0.924
[3], first compound 0.78 µg/mL, partner 1 µg/mL | 0.917
[3], first compound 1.56 µg/mL, partner 0.5 µg/mL | 0.939
[3], first compound 1.56 µg/mL, partner 1 µg/mL | 0.941
[3], first compound 3.12 µg/mL, partner 0.0625 µg/mL | 0.99
[3], first compound 3.12 µg/mL, partner 0.125 µg/mL | 0.996
[3], first compound 3.12 µg/mL, partner 0.25 µg/mL | 0.931
[3], first compound 6.24 µg/mL, partner 0.0625 µg/mL | 0.67
[3], first compound 6.24 µg/mL, partner 0.125 µg/mL | 0.706
[3], first compound 6.24 µg/mL, partner 0.25 µg/mL | 0.851
[4], first compound 1 µg/mL, partner 0.15 µg/mL | ≥ 1
[4], first compound 1 µg/mL, partner 0.3 µg/mL | ≥ 1
[4], first compound 2 µg/mL, partner 0.15 µg/mL | ≥ 1
[4], first compound 2 µg/mL, partner 0.3 µg/mL | 0.983
[4], first compound 4 µg/mL, partner 0.15 µg/mL | 0.981
[4], first compound 4 µg/mL, partner 0.3 µg/mL | 0.948

Conditions | Bliss interaction score
[9] | 0.0535
[10] | 0.0481
[11] | 0.0808
[12] | 0.0811
